Laboratory results as given in patent publication US8445510B2, “Fused bicyclic kinase inhibitors” (OSI Pharmaceuticals, LLC, priority 2011, dated 2013).

Assays:
[1] = target: T1, Aurora B (Homo sapiens, UniProt Q96GD4); assay: Aurora B cell mechanistic assay (HT-29), phospho-Histone H3 (Ser10) ELISA; assay type: cell-based; conditions: HT-29 cell line; inhibition of phospho-Histone H3 (Ser10); at least duplicate experiments (italicized if single experiment); read-out: Aurora B mech IC50
T1 construct: HT-29 cells grown in complete growth media
Outline: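 HT-29 cells treated 1 h at 37 °C with serially diluted compound, then 100 nM Calyculin A added for 30 min. Lysates assayed by phospho-Histone H3 (Ser10) ELISA at 450 nm; normalized to DMSO (100%) and a reference Aurora B inhibitor (full inhibition); IC50 by four-parameter fit.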

[2] = system: Karpas-299 cells; assay: Karpas-299 cell proliferation assay (CellTiter-Glo); assay type: cell-based; conditions: Homo sapiens, 72 h; Karpas-299 cell line (NPM-ALK); 3 days incubation; at least duplicate experiments; read-out: Prolif. IC50

T1 sequence (Q96GD4 whole entry): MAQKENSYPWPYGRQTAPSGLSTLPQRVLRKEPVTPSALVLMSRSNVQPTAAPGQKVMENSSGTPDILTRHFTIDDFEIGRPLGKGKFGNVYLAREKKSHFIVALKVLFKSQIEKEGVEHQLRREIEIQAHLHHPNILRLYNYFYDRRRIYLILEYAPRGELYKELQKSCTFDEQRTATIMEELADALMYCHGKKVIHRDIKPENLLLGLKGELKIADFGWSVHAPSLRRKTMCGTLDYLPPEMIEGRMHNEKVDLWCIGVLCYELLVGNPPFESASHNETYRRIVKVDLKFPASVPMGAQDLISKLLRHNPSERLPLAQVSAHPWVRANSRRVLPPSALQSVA

SMILES | IC50 [1] | IC50 [2]
C[C@H](c1c(OC(F)F)ccc(F)c1Cl)c1c[nH]c2ncc(-c3cnn([C@H]4CC[C@H](O)CC4)c3Cl)cc12 [Example 82, trans-4-[5-Chloro-4-(3-{(1S)-1-[2-chloro-6-(difluoromethoxy)-3-fluorophenyl]ethyl}-1H-pyrrolo[2,3-b]pyridin-5-yl)-1H-pyrazol-1-yl]cyclohexanol] | > 1 µM | 0.05 to 0.2 µM
C[C@H](c1c(OC(F)F)ccc(F)c1Cl)c1c[nH]c2ncc(-c3cnn([C@H]4CC[C@H](O)CC4)c3CO)cc12 [Example 83, trans-4-[4-(3-{(1S)-1-[2-Chloro-6-(difluoromethoxy)-3-fluorophenyl]ethyl}-1H-pyrrolo[2,3-b]pyridin-5-yl)-5-(hydroxymethyl)-1H-pyrazol-1-yl]cyclohexanol] | > 1 µM | 0.05 to 0.2 µM
Cc1c(-c2cnc3[nH]cc([C@H](C)c4c(O)ccc(F)c4Cl)c3c2)cnn1[C@H]1CC[C@H](O)CC1 [Example 102, 3-Chloro-4-fluoro-2-[(1S)-1-{5-[1-(trans-4-hydroxycyclohexyl)-5-methyl-1H-pyrazol-4-yl]-1H-pyrrolo[2,3-b]pyridin-3-yl}ethyl]phenol] | > 1 µM | 0.05 to 0.2 µM
CCOc1ccc(F)c(Cl)c1[C@@H](C)c1c[nH]c2ncc(-c3cnn([C@H]4CC[C@H](O)CC4)c3C)cc12 [Example 103, trans-4-(4-{3-[(1S)-1-(2-Chloro-6-ethoxy-3-fluorophenyl)ethyl]-1H-pyrrolo[2,3-b]pyridin-5-yl}-5-methyl-1H-pyrazol-1-yl)cyclohexanol] | > 1 µM | ≤ 0.05 µM
COc1cc(OC)c(Cl)c([C@@H](C)c2c[nH]c3ncc(-c4cnn([C@H]5CC[C@H](O)CC5)c4C)cc23)c1Cl [Example 106, trans-4-(4-{3-[(1S)-1-(2,6-Dichloro-3,5-dimethoxyphenyl)ethyl]-1H-pyrrolo[2,3-b]pyridin-5-yl}-5-methyl-1H-pyrazol-1-yl)cyclohexanol] | > 1 µM | 0.2 to 1 µM
[2H]C([2H])([2H])Oc1ccc(F)c(Cl)c1[C@@H](C)c1c[nH]c2ncc(-c3cnn([C@H]4CC[C@H](O)CC4)c3C)cc12 [Example 107, trans-4-(4-{3-[(1S)-1-{2-Chloro-3-fluoro-6-[(^2H3)methyloxy]phenyl}ethyl]-1H-pyrrolo[2,3-b]pyridin-5-yl}-5-methyl-1H-pyrazol-1-yl)cyclohexanol] | > 1 µM | 0.05 to 0.2 µM
Cc1c(-c2cnc3[nH]cc(C(C#N)c4c(Cl)ccc(F)c4Cl)c3c2)cnn1[C@H]1CC[C@H](O)CC1 (stereo partly drawn) [Example 108, (2,6-Dichloro-3-fluorophenyl){5-[1-(trans-4-hydroxycyclohexyl)-5-methyl-1H-pyrazol-4-yl]-1H-pyrrolo[2,3-b]pyridin-3-yl}acetonitrile] | > 1 µM | 0.2 to 1 µM
[2H][C@@](C)(c1c(OC)ccc(F)c1Cl)c1c[nH]c2ncc(-c3cnn([C@H]4CC[C@H](O)CC4)c3C)cc12 [Example 110, trans-4-(4-{3-[(1S)-1-(2-Chloro-3-fluoro-6-methoxyphenyl)(1-^2H)ethyl]-1H-pyrrolo[2,3-b]pyridin-5-yl}-5-methyl-1H-pyrazol-1-yl)cyclohexanol] | > 1 µM | ≤ 0.05 µM
[2H]C([2H])([2H])[C@H](c1c(OC)ccc(F)c1Cl)c1c[nH]c2ncc(-c3cnn([C@H]4CC[C@H](O)CC4)c3C)cc12 [Example 111, trans-4-(4-{3-[(1S)-1-(2-Chloro-3-fluoro-6-methoxyphenyl)(2,2,2-^2H3)ethyl]-1H-pyrrolo[2,3-b]pyridin-5-yl}-5-methyl-1H-pyrazol-1-yl)cyclohexanol] | > 1 µM | ≤ 0.05 µM

The remaining lines, values ahead:

IC50 [1] | IC50 [2] | SMILES
0.2 to 1 µM | ≤ 0.05 µM | Cc1c(-c2cnc3[nH]cc([C@H](C)c4c(OC(F)F)ccc(F)c4Cl)c3c2)cnn1[C@H]1CC[C@H](C(N)=O)CC1 [Example 76, trans-4-[4-(3-{(1S)-1-[2-Chloro-6-(difluoromethoxy)-3-fluorophenyl]ethyl}-1H-pyrrolo[2,3-b]pyridin-5-yl)-5-methyl-1H-pyrazol-1-yl]cyclohexanecarboxamide]
0.2 to 1 µM | 0.05 to 0.2 µM | CCc1nn([C@H]2CC[C@H](O)CC2)cc1-c1cnc2[nH]cc([C@H](C)c3c(OC(F)F)ccc(F)c3Cl)c2c1 [Example 77, trans-4-[4-(3-{(1S)-1-[2-Chloro-6-(difluoromethoxy)-3-fluorophenyl]ethyl}-1H-pyrrolo[2,3-b]pyridin-5-yl)-3-ethyl-1H-pyrazol-1-yl]cyclohexanol]
> 1 µM | ≤ 0.05 µM | CCc1c(-c2cnc3[nH]cc([C@H](C)c4c(OC(F)F)ccc(F)c4Cl)c3c2)cnn1[C@H]1CC[C@H](O)CC1 [Example 78, trans-4-[4-(3-{(1S)-1-[2-Chloro-6-(difluoromethoxy)-3-fluorophenyl]ethyl}-1H-pyrrolo[2,3-b]pyridin-5-yl)-5-ethyl-1H-pyrazol-1-yl]cyclohexanol]
> 1 µM | 0.05 to 0.2 µM | Cc1c(-c2cnc3[nH]cc([C@H](C)c4c(OC(F)F)ccc(F)c4Cl)c3c2)cnn1[C@H]1C[C@@](C)(O)C1 [Example 79, cis-3-[4-(3-{(1S)-1-[2-Chloro-6-(difluoromethoxy)-3-fluorophenyl]ethyl}-1H-pyrrolo[2,3-b]pyridin-5-yl)-5-methyl-1H-pyrazol-1-yl]-1-methylcyclobutanol]
> 1 µM | ≤ 0.05 µM | Cc1c(-c2cnc3[nH]cc([C@H](C)c4c(OC(F)F)ccc(F)c4Cl)c3c2)cnn1[C@H]1C[C@@H](O)C1 [Example 81, cis-3-[4-(3-{(1S)-1-[2-Chloro-6-(difluoromethoxy)-3-fluorophenyl]ethyl}-1H-pyrrolo[2,3-b]pyridin-5-yl)-5-methyl-1H-pyrazol-1-yl]cyclobutanol]
0.2 to 1 µM | 0.05 to 0.2 µM | C[C@H](c1c(OC(F)F)ccc(F)c1Cl)c1c[nH]c2ncc(-c3cnn([C@H]4CC[C@H](O)CC4)c3F)cc12 [Example 84, trans-4-[4-(3-{(1S)-1-[2-Chloro-6-(difluoromethoxy)-3-fluorophenyl]ethyl}-1H-pyrrolo[2,3-b]pyridin-5-yl)-5-fluoro-1H-pyrazol-1-yl]cyclohexanol]
0.2 to 1 µM | ≤ 0.05 µM | [2H]C([2H])([2H])c1c(-c2cnc3[nH]cc([C@H](C)c4c(OC(F)F)ccc(F)c4Cl)c3c2)cnn1[C@H]1CC[C@H](O)CC1 [Example 85, trans-4-[4-(3-{(1S)-1-[2-Chloro-6-(difluoromethoxy)-3-fluorophenyl]ethyl}-1H-pyrrolo[2,3-b]pyridin-5-yl)-5-(^2H3)methyl-1H-pyrazol-1-yl]cyclohexanol]
0.2 to 1 µM | ≤ 0.05 µM | Cc1c(-c2cnc3[nH]cc([C@H](C)c4c(OC(C)C)ccc(F)c4Cl)c3c2)cnn1[C@H]1CC[C@H](O)CC1 [Example 104, trans-4-[4-(3-{(1S)-1-[2-Chloro-3-fluoro-6-(propan-2-yloxy)phenyl]ethyl}-1H-pyrrolo[2,3-b]pyridin-5-yl)-5-methyl-1H-pyrazol-1-yl]cyclohexanol]
0.05 to 0.2 µM | ≤ 0.05 µM | Cc1c(-c2cnc3[nH]cc([C@H](C)c4c(OCC(F)(F)F)ccc(F)c4Cl)c3c2)cnn1[C@H]1CC[C@H](O)CC1 [Example 105, trans-4-[4-(3-{(1S)-1-[2-Chloro-3-fluoro-6-(2,2,2-trifluoroethoxy)-phenyl]ethyl}-1H-pyrrolo[2,3-b]pyridin-5-yl)-5-methyl-1H-pyrazol-1-yl]cyclohexanol]
